Read-outs that look alike come from different tables or passages of the source.
How the values were obtained:
[1] = test system: postoperative pain after third molar surgery; conditions: VAS, paracetamol 1000 mg, RA Seymour et al 2003, cited from earlier work
[2] = test system: pain following wisdom tooth extraction under local anaesthesia; experiment: pilot study using a dental pain model, visual analogue scale pain scores; assay type: in vivo, patients; conditions: VAS score, calculated from the trial of Example 5, lower = less pain
Description: Pain scores at rest and on activity were measured by visual analogue scales which were used to derive an area-under-the curve (AUC) pain score. A lower AUC represents better pain relief.
A lower VAS score is consistent with less pain due to better pain relief. […] Pain scores were calculated as means over the first dose interval rather than AUC values to allow comparison with literature values for paracetamol in the dental pain model.

| Compound | Mean Pain Score at Rest ([1]; 0-30 minutes) | Mean Pain Score at Rest ([1]; over 4 hours) | Mean Pain Score at Rest (over first dose interval) [2] |
| --- | --- | --- | --- |
| CC(=O)Nc1ccc(O)cc1 [Paracetamol] | 46-48 mm | 42 mm |  |
| CC(C)Cc1ccc(C(C)C(=O)O)cc1 (stereo not drawn) [Ibuprofen] |  |  | 28 mm |

From patent US10532036B2, “Combination composition” (AFT Pharmaceuticals Ltd, priority 2004, dated 2020)
